ChEMBL document CHEMBL1129646, “Structure-activity relationships study of two series of leukotriene B4 antagonists: novel indolyl and naphthyl compounds substituted with a 2-[methyl(2-phenethyl)amino]-2-oxoethyl side chain” (J Med Chem, 1996)

Columns and labels:
Leukotriene B4 receptor = Leukotriene B4 receptor (Homo sapiens, UniProt Q9NPC1+Q15722); assay: LTB4 receptor binding from radioligand binding assay using human intact neutrophils PMN
[1] = LTB4 receptor binding from radioligand binding assay using guinea pig spleen cell membrane
[2] = biological target: T1, Leukotriene B4 receptor 1 (Homo sapiens, UniProt Q15722); assay: Compound was evaluated for LTB4 receptor binding, obtained from radioligand binding assay using human intact neutrophils PMN
T1 sequence (Q15722 whole entry): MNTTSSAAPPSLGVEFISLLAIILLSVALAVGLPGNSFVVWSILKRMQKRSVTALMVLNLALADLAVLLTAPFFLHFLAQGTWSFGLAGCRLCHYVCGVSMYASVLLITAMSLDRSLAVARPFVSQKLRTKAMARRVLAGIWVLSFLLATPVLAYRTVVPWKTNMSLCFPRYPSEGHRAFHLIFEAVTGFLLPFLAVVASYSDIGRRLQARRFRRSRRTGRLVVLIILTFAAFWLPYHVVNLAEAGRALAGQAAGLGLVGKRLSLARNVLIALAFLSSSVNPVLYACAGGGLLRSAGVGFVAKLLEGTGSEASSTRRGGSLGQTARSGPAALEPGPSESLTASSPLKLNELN

[3] = biological target: T1, Leukotriene B4 receptor 1; assay: Compound was evaluated for LTB4 receptor binding obtained from radioligand binding assay using human intact neutrophils PMN; No activity

| Compound | IC50 (Leukotriene B4 receptor) [nM] | IC50 [1] [nM] | IC50 [2] [nM] | IC50 [3] |
| --- | --- | --- | --- | --- |
| CN(CCc1ccccc1)C(=O)Cc1cc(C(=O)O)c(OCc2ccccc2)c2ccccc12 | 80 | 6.5 |  |  |
| CN(CCc1ccccc1)C(=O)Cn1cc(/C=C/C(=O)O)c2ccc(OCc3ccccc3)cc21 |  | > 300 |  |  |
| CN(CCc1ccccc1)C(=O)Cc1cc(CCC(=O)O)cc2c(-c3ccccc3)cccc12 | 40 | 3.5 |  |  |
| C/C(=C\c1cn(CC(=O)N(C)CCc2ccccc2)c2ccc(OCc3ccccc3)cc12)C(=O)O | 11 | 5 |  |  |
| CN(CCc1ccccc1)C(=O)Cn1cc(/C=C/C=C/C(=O)O)c2cc(OCc3ccccc3)ccc21 | 19 | 8 |  |  |
| CN(CCc1ccccc1)C(=O)Cc1cc(CCC(=O)O)cc2c(OCc3ccccc3)cccc12 |  | 10 |  |  |
| CC/C(=C\c1cn(CC(=O)N(C)CCc2ccccc2)c2ccc(OCc3ccccc3)cc12)C(=O)O | 7.6 | 1.3 |  |  |
| CN(CCc1ccccc1)C(=O)Cn1cc(/C=C/C2N=NN=N2)c2cc(OCc3ccccc3)ccc21 | 19 | 4.5 |  |  |
| CN(CCc1ccccc1)C(=O)Cc1cc(C(=O)O)cc2cc(OCc3ccccc3)ccc12 | 7.75 | 1.07 |  |  |
| CN(CCc1ccccc1)C(=O)Cn1cc(CC(=O)O)c2cc(OCc3ccccc3)ccc21 |  | 30 |  |  |
| CN(CCc1ccccc1)C(=O)Cn1cc(/C=C/C(=O)O)c2cc(OCc3ccccc3)ccc21 | 53 | 4.3 |  |  |
| CN(CCc1ccccc1)C(=O)Cn1c(C(=O)O)cc2cc(OCc3ccccc3)ccc21 | 11.2 | 2.5 |  |  |
| CN(CCc1ccccc1)C(=O)Cc1cc(CCCCC(=O)O)cc2c(OCc3ccccc3)cccc12 | 100 | 2.8 |  |  |
| Cc1c(C(=O)O)c2cc(OCc3ccccc3)ccc2n1CC(=O)N(C)CCc1ccccc1 | 90 | 5 |  |  |
| CC/C(=C\c1cc(CC(=O)N(C)CCc2ccccc2)c2cccc(OCc3ccccc3)c2c1)C(=O)O | 50 | 0.8 |  |  |
| CN(CCc1ccccc1)C(=O)Cc1cc(/C=C/C(=O)O)cc2c(Oc3ccccc3)cccc12 | 20 | 2 |  |  |
| CN(CCc1ccccc1)C(=O)Cc1cc(/C=C/C(=O)O)cc2c(-c3ccccc3)cccc12 | 50 | 1 |  |  |
| CN(O)C(=O)c1cc(CC(=O)N(C)CCc2ccccc2)c2cccc(OCc3ccccc3)c2c1 |  |  | 60 |  |
| CN(CCc1ccccc1)C(=O)Cc1cc(/C=C/C(=O)O)cc2c(OCc3ccccc3)cccc12 | 3.55 | 0.58 |  |  |

| Compound | IC50 (Leukotriene B4 receptor) [nM] | IC50 [1] [nM] | IC50 [2] [nM] | IC50 [3] |
| --- | --- | --- | --- | --- |
| CN(CCc1ccccc1)C(=O)Cc1cc(C(=O)O)cc2c(-c3ccccc3)cccc12 | 8.25 | 0.45 |  |  |
| CN(CCc1ccccc1)C(=O)Cn1cc(CCC(=O)O)c2cc(OCc3ccccc3)ccc21 |  | 40 |  |  |
| CN(CCc1ccccc1)C(=O)Cn1cc(C(C(=O)O)c2ccccc2)c2c(OCc3ccccc3)cccc21 (stereo not drawn) | 19 | 2.5 |  |  |
| CCCCCOc1cccc2c(CC(=O)N(C)CCc3ccccc3)cc(C(=O)O)cc12 | 9 | 0.6 |  |  |
| CC/C(=C\c1cn(CC(=O)N(C)CCc2ccccc2)c2cccc(OCc3ccccc3)c12)C(=O)O | 35 | 1.5 |  |  |
| C/C(=C\c1cn(CC(=O)N(C)CCc2ccccc2)c2cccc(OCc3ccccc3)c12)C(=O)O | 24.5 | 2.33 |  |  |
| CN(CCc1ccccc1)C(=O)Cn1cc(/C=C/C(=O)O)c2cccc(OCc3ccccc3)c21 |  | > 300 |  | Not Active |
| CN(CCc1ccccc1)C(=O)Cc1cc(CCC(=O)O)cc2c(Oc3ccccc3)cccc12 | 250 | 20 |  |  |
| CN(CCc1ccccc1)C(=O)Cn1cc(C(=O)O)c2cc(OCc3ccccc3)ccc21 | 26.3 | 1.5 |  |  |
| CN(CCc1ccccc1)C(=O)Cc1cc(/C=C/C2N=NN=N2)cc2c(OCc3ccccc3)cccc12 | 5 | 3 |  |  |
| COc1cccc2c(CC(=O)N(C)CCc3ccccc3)cc(C(=O)O)cc12 | 700 | > 30 |  |  |
| CN(CCc1ccccc1)C(=O)Cc1cc(/C=C/C=C/C(=O)O)cc2c(OCc3ccccc3)cccc12 | 8 | 1 |  |  |
| CN(CCc1ccccc1)C(=O)Cn1cc(C=O)c2cc(OCc3ccccc3)ccc21 |  |  | > 300 |  |
| CN(CCc1ccccc1)C(=O)Cn1cc(C(=O)c2cccc(C(=O)O)c2)c2cc(OCc3ccccc3)ccc21 | 8.5 | 12 |  |  |
| CN(CCc1ccccc1)C(=O)Cn1cc(/C=C/C(=O)O)c2c(OCc3ccccc3)cccc21 | 16.5 | 1 |  |  |
| CN(CCc1ccccc1)C(=O)Cn1cc(/C=C/C=C/C(=O)O)c2c(OCc3ccccc3)cccc21 | 15 | 1.5 |  |  |
| CN(CCc1ccccc1)C(=O)Cn1cc(C(=O)O)c2c(OCc3ccccc3)cccc21 | 20.3 | 1.45 |  |  |
| CN(CCc1ccccc1)C(=O)Cc1cc(C(=O)O)cc2c(Oc3ccccc3)cccc12 | 25 | 1.5 |  |  |
